For data set [1], the system named is MC38 tumors. As to the kind of experiment: Syngeneic MC38 colon cancer model with anti-PD1. It counts as in vivo.
For data set [2], the target named is T1, RIPK1 and VHL (Homo sapiens, UniProt P40337+Q13546).
T1 construct: Addgene backbone 87075 (RIPK1 vector, made in house) N273A; host or cells: HEK293T
As to the kind of experiment: NanoBRET live-cell ternary complex assay. It counts as cell-based. The following applies: HEK293 cells co-transfected with nLuc-RIPK1 and VHL-Halo. How it is done: Figure 2 LD4172, a RIPK1 PROTAC, induces potent and highly specific degradation of RIPK1 in a panel of cell lines. A, Chemical structures of RIPK1 PROTAC, LD4172, and its negative control, LD4172-NC. […] B, Quantification of RIPK1 levels in both Jurkat and B16F10 cells treated with LD4172 at indicated concentrations for 24 h, followed by Western blotting. C, DC50 and Dmax of LD4172 in various human and mouse cell lines. DC50, the drug concentration causing 50% protein degradation; Dmax, the maximum level of protein degradation. D, RIPK1 degradation kinetics induced by LD4172 treatment (1 μM) and resynthesis kinetics upon washout of LD4172 in both Jurkat and B16F10 cells. […] G, Time-resolved fluorescence resonance energy transfer (TR-FRET) based biochemical binding assay for RIPK1. […] In total, ~10,000 proteins were quantified in the proteomics experiment. […]
Human RIPK1 cDNA insert was cloned into pLenti6.2-ccdB-nLuc plasmid (87075, Addgene, a kind gift from Taipale Lab) using gateway cloning kit (11791020, Thermo) and standard protocol to obtain pLenti6.2-RIPK1-nLuc fusion vector. […] Immediately before reading the plate, prepare 4x concentrated NanoGlo nLuc substrate (N157, Promega) was prepared by diluting the stock into Opti-MEM 1,000-fold, and the NanoGlo substrate was then added into each well to bring the final concentration to 1x. […]

Data set [3] can be described thus: Plasma protein binding. In kind it is in vitro ADME. The following applies: read-out: bound to plasma proteins (converted).
Data set [4] deals with B16F10 cells. As to the kind of experiment: TNFα-mediated apoptosis in B16F10 cells. It counts as cell-based, mouse. The settings on record: 1 μM, TNFα 100 ng/mL, 72 hours. An excerpt:
Figure 3 LD4172 sensitizes B16F10 cells to TNFα-mediated apoptosis. A, Representative flow cytometry dot plots of apoptosis. In all four plots, viable cells are seen in the left lower quadrant (FITC-/PI-), early apoptotic cells in the right lower quadrant (FITC+/PI-), and late apoptotic cells in the right upper quadrant (FITC+/PI+). B, Representative images of PI (red) and caspase 3/7 (Cas3/7+, green) staining of B16F10 cells. Cell death assessed by PI uptake using Cytation 5 imager. C, Western blots for the expression of cleaved caspase3, cleaved caspase7, and cleaved PARP in B16F10 cells. D, Quantification of extracellular ATP level. Western blots for the expression of HMGB1 and calreticulin in B16F10 cells. E, Immunofluorescence staining of HMGB1 in B16F10 cells. B16F10 cells were treated in the presence or absence of TNFα (100 ng/mL), Z-VAD-FMK (25 μM), LD4172 (1 μM), and/or T2I (1 μM) as indicated for 72 hours. Data are representative of three independent experiments. Error bars represent SD.
Apoptosis quantification was conducted utilizing a FITC-conjugated Annexin V/PI assay kit (556547, BD Biosciences) and analyzed through flow cytometry. Briefly, 2×10^5 of B16F10 cells were seeded onto six-well plates and treated as specified for 72 hours at 37°C. Treated and untreated cells were harvested, washed with PBS, and resuspended in 100 μl of binding buffer. […]

As for `Cc1ncsc1-c1ccc([C@H](C)NC(=O)[C@@H]2C[C@@H](O)CN2C(=O)[C@@H](NC(=O)CCCCCCCCCCC(=O)NCCCn2cc(-c3ccc4c(c3)CCN4C(=O)Cc3cccc(OC(F)(F)F)c3)c3c(N)ncnc32)C(C)(C)C)cc1` [LD4172], the “tumor response in combination with anti-PD1” value in data set [1] is on record as “substantially sensitized MC38 tumors to anti-PD1 therapy”. Moreover, in data set [2], the “ternary complex formation, NanoBRET between RIPK1 and VHL” value was “induced NanoBRET between RIPK1 and VHL”. In data set [3], the fraction unbound is 0.014. Further, in data set [4], the “cell death / apoptosis in combination with TNFα” value is given as “significant cell death”.

Values taken from publication PMC11042424, “Development of a First-in-Class RIPK1 Degrader to Enhance Antitumor Immunity” (Research Square, 2024).
